The values below come from US8124655B2, “Use of LR-90 and LR-102 to overcome insulin resistance” (City of Hope, priority 2007, dated 2012).

The structures appear in SMILES notation.

One experiment has as its system 3T3 adipocytes. The experiment is described as follows: FFA uptake and glucose uptake in 3T3 adipocytes. In kind it is cell-based. The conditions noted are these: FIG. 14. The source says: FIG. 14. Effect of LR-90 on 3T3 adipocytes. Tissue culture data on 3T3 adipocytes, showing free fatty acid (FFA) uptake and glucose uptake improvements upon contact with LR-90.
The present Example, with reference to FIG. 14, provides tissue culture data on 3T3 adipocytes, showing free fatty acid (FFA) uptake and glucose uptake improvements upon contact with LR-90.

For experiment [1], the system named is TGF-β1, CTGF, fibronectin and collagen IV. The experiment is described as follows: Renal TGF-β1, CTGF and ECM proteins by RT-PCR, western blot and immunostaining. Format: in vivo, rat. The source says: Tissue sections were deparaffinised by sequential exposure to xylene and ethanol, dehydrated and then exposed to H2O2 to eliminate endogenous peroxidase activity. The kidney sections were then blocked with 2% (wt/vol.) BSA and exposed to specific antibodies against AGE, AGER, TGF-β1, CTGF, fibronectin and collagen type IV. Biotinylated anti-rabbit or anti-mouse IgG was then applied as a secondary antibody, followed by horseradish peroxidase conjugated streptavidin. The staining was visualised by reaction with 3,3′-diaminobenzidine tetrahydrochloride and then counterstained with haematoxylin. All the sections were examined by light microscopy (Olympus AX70) and photographed with Retiga 2000R camera.
Renal cortical tissues were homogenised in PBS buffer with 1% (vol./vol.) Nonidet P-40, 0.5% (wt/vol.) sodium deoxycholate, 0.1% (wt/vol.) SDS and protease inhibitor mixture (Roche, Indianapolis, Ind., USA). Homogenates were centrifuged for 15 min at 4° C. and at 12,000 rpm and the supernatant fractions collected and stored at −70° C. Nuclear extracts were prepared as described previously. Protein concentrations were measured using the Bio-Rad DC Assay kit. Total RNA was isolated using the RNA-STAT-60 reagent (Tel-Test, Friendswood, Tex., USA). Western blot assay Protein samples (50 μg) were separated on 10 to 20% gradient Tris-glycine Criterion gels (Bio-Rad) and then transferred to nitrocellulose membranes. The membranes were blocked with 5% (wt/vol.) skimmed milk in PBS before incubation with anti-TGF-β1, anti-CTGF, anti-AGER, anti-phospho-p38 MAPK, anti-phospho-p44/42 MAPK and anti-p65 NF-κB antibodies. Immunoreactive proteins were detected by enhanced chemiluminescence (Western Lightning Chemiluminescence Reagent; Perkin-Elmer, Waltham, Mass., USA) using horseradish peroxidase-labelled secondary antibodies. Equal amounts of protein loading were confirmed by restaining the membranes with antibodies against β-actin, p38 MAPK or p44/42 MAPK for cytosolic extracts or with histone H2B for nuclear extracts. Band intensities were quantified using a densitometer (Quantity One, Bio-Rad). Reverse transcriptase-polymerase chain reaction Total RNA (1 μg) was used for the RT reaction using the GeneAmp RNA PCR kit (Applied Biosystems, Foster City, Calif., USA). Total cDNA was then used in PCR reactions containing gene specific primers [Electronic supplementary material (ESM) Table 1] paired with Quantum 18S rRNA internal standards (Ambion, Austin, Tex., USA). Multiplex PCR reactions were performed in a GeneAmp 9700 (Applied Biosystems). […] The densities of amplified products corresponding to specific genes and 18S rRNA were quantified with Quantity One software (Bio-Rad). Results are expressed as the means of the ratios of Tgfb1, Ctgf or Ager band densities to the 18S rRNA band density.
In general terms: Immunoblotting shows a protein as a band on a membrane.

Setting [2] is: kidneys of ZDF rats, to almost similar levels as in ZL rats.

With `CC(C)(Oc1ccc(NC(=O)Nc2ccc(Cc3ccc(NC(=O)Nc4ccc(OC(C)(C)C(=O)O)cc4)c(Cl)c3)cc2Cl)cc1)C(=O)O` [LR-90, methylene bis[4,4′-(2-chlorophenylureidophenoxyisobutyric acid)]], in the experiment on 3T3 adipocytes, the “free fatty acid (FFA) uptake” value is “improvements” and the glucose uptake entry was “improvements”. Moreover, in experiment [1] (kidneys of ZDF animals), the “mRNA expression and protein production of CTGF” value is reported as “significantly attenuated”; the “mRNA expression and protein production of TGF-β1” value is on record as “significantly attenuated”. For the same compound, in experiment [1] (setting [2]), the “positive immunostaining for collagen IV” value is listed as “markedly reduced” and the “positive immunostaining for fibronectin” value is recorded as “markedly reduced”.
